This note sets out measurements from ChEMBL document CHEMBL4428130, “Novel benzoquinoline derivatives via unpredicted condensation of ethyl propiolate and naphthylamines: Synthesis and topoisomerase inhibition activity” (2016).

One may read the GI50 as the concentration that inhibits growth by half.

For one assay, the system named is HepG2. Nature of the assay: Growth inhibition of human HepG2 cells after 72 hrs by trypan blue assay. In kind it is functional. The settings on record: HepG2, 72 h.
The test system of another assay is HL-60. Description: Growth inhibition of human HL60 cells after 72 hrs by trypan blue assay. In kind it is functional. The conditions noted are these: HL-60, 72 h.
In a further assay the test system is HeLa. Description: Growth inhibition of human HeLa cells after 72 hrs by trypan blue assay. In kind it is functional.
Assay [1] deals with DNA topoisomerase 2-alpha (Homo sapiens) (UniProt P11388). Nature of the assay: Inhibition of human recombinant topoisomerase-2 alpha expressed in Escherichia coli assessed as reduction in supercoiled pBR322 DNA relaxation after 60 mins by ethidium bromide staining based agarose gel electrophoresis.
Assay [2] has the same target. Description: Poison activity at human recombinant topoisomerase-2 alpha expressed in Escherichia coli assessed as generation of linear DNA using supercoiled pBR322 DNA at 100 to 200 uM after 60 mins by ethidium bromide staining based agarose gel electrophoresis.
The subject of the next assay is Salmon testes DNA. Description: Binding affinity to Salmon testis DNA assessed as drug-DNA complex formation at drug:DNA ratio of 0.08 at 310 to 380 nanometer by linear flow dichroism method. In kind it is nucleic-acid assay. The settings on record: Salmonidae.
For assay [3], the target named is DNA topoisomerase 2-alpha (Homo sapiens) (UniProt P11388). Description: Inhibition of human recombinant topoisomerase-2 alpha expressed in Escherichia coli assessed as reduction in supercoiled pBR322 DNA relaxation at 8 uM after 60 mins by ethidium bromide staining based agarose gel electrophoresis.
The target is the same in assay [4]. Nature of the assay: Poison activity at human recombinant topoisomerase-2 alpha expressed in Escherichia coli assessed as generation of linear DNA using supercoiled pBR322 DNA at 8 uM after 60 mins by ethidium bromide staining based agarose gel electrophoresis.

Activity calls are given as the source filed them. The rule behind the calls is not given here.

DNA topoisomerase 2-alpha (Homo sapiens), sequence (P11388 whole entry): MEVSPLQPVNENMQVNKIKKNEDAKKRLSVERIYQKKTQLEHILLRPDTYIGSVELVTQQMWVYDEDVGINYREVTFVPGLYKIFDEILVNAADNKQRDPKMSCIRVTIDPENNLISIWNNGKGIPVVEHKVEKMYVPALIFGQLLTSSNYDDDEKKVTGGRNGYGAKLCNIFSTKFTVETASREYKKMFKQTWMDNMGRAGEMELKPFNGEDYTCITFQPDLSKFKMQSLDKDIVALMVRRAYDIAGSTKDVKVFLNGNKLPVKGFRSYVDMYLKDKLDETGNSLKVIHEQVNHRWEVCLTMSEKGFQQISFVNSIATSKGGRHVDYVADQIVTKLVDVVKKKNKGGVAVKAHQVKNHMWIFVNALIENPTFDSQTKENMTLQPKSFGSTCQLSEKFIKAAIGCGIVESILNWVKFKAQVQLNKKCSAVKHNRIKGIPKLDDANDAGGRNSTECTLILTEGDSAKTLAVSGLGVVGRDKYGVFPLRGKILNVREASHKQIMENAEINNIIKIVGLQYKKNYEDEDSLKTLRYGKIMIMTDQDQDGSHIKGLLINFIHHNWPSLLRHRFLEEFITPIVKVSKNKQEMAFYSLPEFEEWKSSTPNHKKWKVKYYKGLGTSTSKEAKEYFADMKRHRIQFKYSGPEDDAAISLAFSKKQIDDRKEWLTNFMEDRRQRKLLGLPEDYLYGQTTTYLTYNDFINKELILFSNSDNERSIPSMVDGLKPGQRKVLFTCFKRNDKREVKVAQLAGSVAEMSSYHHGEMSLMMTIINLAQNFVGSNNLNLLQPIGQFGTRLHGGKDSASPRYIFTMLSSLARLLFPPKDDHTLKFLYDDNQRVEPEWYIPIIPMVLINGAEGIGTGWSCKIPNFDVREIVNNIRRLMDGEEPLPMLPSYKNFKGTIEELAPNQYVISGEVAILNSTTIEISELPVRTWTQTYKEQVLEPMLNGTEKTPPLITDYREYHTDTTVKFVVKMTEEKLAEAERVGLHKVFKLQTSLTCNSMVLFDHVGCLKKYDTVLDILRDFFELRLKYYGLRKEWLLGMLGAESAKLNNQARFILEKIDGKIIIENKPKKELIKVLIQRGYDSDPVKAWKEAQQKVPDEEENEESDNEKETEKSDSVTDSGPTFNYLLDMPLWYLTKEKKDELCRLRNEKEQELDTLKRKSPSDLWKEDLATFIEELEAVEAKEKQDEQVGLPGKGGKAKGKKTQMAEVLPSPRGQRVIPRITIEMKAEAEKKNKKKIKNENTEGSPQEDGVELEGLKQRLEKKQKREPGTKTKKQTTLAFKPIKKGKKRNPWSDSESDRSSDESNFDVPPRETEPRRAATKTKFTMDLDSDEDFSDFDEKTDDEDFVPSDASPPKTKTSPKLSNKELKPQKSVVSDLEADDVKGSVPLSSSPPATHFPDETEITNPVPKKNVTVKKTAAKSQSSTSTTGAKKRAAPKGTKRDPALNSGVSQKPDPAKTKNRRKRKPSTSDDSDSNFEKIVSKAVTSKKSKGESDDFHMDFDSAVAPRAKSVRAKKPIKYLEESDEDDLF

Consider `O=C(NCCN1CCOCC1)c1cnc2c(ccc3cc4c(cc32)OCCO4)c1`, for which the GI50 in the assay with HepG2 was > 50 µM; with HL-60, 32.5 µM; in the assay on HeLa, > 50 µM.
`CN(C)CCN1CCN(C(=O)c2cnc3c(ccc4ccccc43)c2)CC1`: the GI50 with HepG2, with HL-60 and in the assay on HeLa was > 50 µM each time.
`CCOC(=O)c1cnc2c(ccc3cc4c(cc32)OCCO4)c1`: the GI50 in the assay on HepG2, with HL-60 and in the assay with HeLa was > 50 µM in each case.
In the case of `CCOC(=O)c1cnc2c(ccc3ccccc32)c1`, the values for the GI50 in the assay on HepG2, with HL-60 and with HeLa were ≥ 50 µM, > 50 µM and > 50 µM, respectively.
As for `CN(C)CCNC(=O)c1cnc2ccc3ccccc3c2c1`, the inhibition result in assay [1] is “Dose-dependent effect”. The GI50 in the assay with HepG2 was 27.8 µM; in the assay with HL-60 it was 24.1 µM; with HeLa, > 50 µM. Further, the result in assay [2] was inactive. In addition, in the assay on Salmon testes DNA, the outcome was Active.
Turning to `COc1cc(NS(C)(=O)=O)ccc1Nc1c2ccccc2nc2ccccc12`, in assay [3], the inhibition result is “Active”. Further, the result in assay [4] was Active.
On to `O=C(NCCN1CCOCC1)c1cnc2ccc3ccccc3c2c1`, for which the GI50 with HepG2, with HL-60 and in the assay with HeLa was > 50 µM each time.
As for `CCOC(=O)c1cnc2ccc3ccccc3c2c1`, the GI50 in the assay with HepG2 was ≥ 50 µM; with HL-60, ≥ 50 µM; in the assay on HeLa, > 50 µM.
As to `CN(C)CCN1CCN(C(=O)c2cnc3ccc4ccccc4c3c2)CC1`, the GI50 with HepG2, in the assay with HL-60 and in the assay on HeLa was > 50 µM throughout.
Take `CN(C)CCN1CCN(C(=O)c2cnc3c(ccc4cc5c(cc43)OCCO5)c2)CC1`: the figures for the GI50 with HepG2, with HL-60 and in the assay with HeLa were 39.4 µM, 33.8 µM and > 50 µM, respectively.
Consider `CN(C)CCNC(=O)c1cnc2c(ccc3cc4c(cc32)OCCO4)c1`, for which the GI50 is > 50 µM in the assay on HepG2, 30 µM in the assay with HL-60 and > 50 µM in the assay on HeLa.
Take `CN(C)CCNC(=O)c1cnc2c(ccc3ccccc32)c1`: the GI50 was 32.2 µM in the assay on HepG2, 29.8 µM in the assay with HL-60 and > 50 µM in the assay with HeLa.
Consider `O=C(NCCN1CCOCC1)c1cnc2c(ccc3ccccc32)c1`, for which the GI50 in the assay on HepG2, in the assay with HL-60 and with HeLa was > 50 µM in each case.
